Active and inactive are the calls of the source.
Assays:
HeLa = experiment: HeLa cell cytotoxicity, dose response, cytotoxicity control for MITF activator project, CellTiter-Glo luminescence, cherry-pick samples (AID 540259); type: functional, cell-based; conditions: Homo sapiens
[1] = target: Peroxisome proliferator-activated receptor gamma/Nuclear receptor coactivator 2 (Homo sapiens, UniProt P37231); experiment: (§1) TR-FRET dose response biochemical High Throughput Screening assay for agonists of the steroid receptor coactivator 2 (SRC-2) recruitment by the peroxisome proliferator-activated receptor gamma (PPAR gamma): non-selective agonists. [Related pubchem assays: 1297, 1032 ]; type: functional
[2] = target: Peroxisome proliferator-activated receptor gamma/Nuclear receptor coactivator 3 (Homo sapiens, UniProt P37231); experiment: as §1, with “3 (SRC-3)” for “2 (SRC-2)”, “1301 (Confirmation screen.), 1048 (Primary screen.)]” for “1297, 1032 ]”; type: functional
[3] = target: Peroxisome proliferator-activated receptor gamma/Nuclear receptor coactivator 1 (Homo sapiens, UniProt P37231); experiment: as §1, with “1 (SRC-1)” for “2 (SRC-2)”, “assays (depositor defined):AID1300, AID1808, AID504735, AID631]” for “assays: 1297, 1032 ]”; type: protein assay
cells [4] = type: functional
[5] = target: Glucose-6-phosphate 1-dehydrogenase (Homo sapiens, UniProt P11413); experiment: human G6PD enzyme inhibitors, dose response, selectivity assay for P. falciparum G6PD inhibitor project, biochemical, fluorescence (AID 504792); type: functional
cells [6] = experiment: cells
[7] = HEp-2 cell cytotoxicity, dose response, cytotoxicity control for RSV inhibitor project, HTS (AID 2410); type: functional; conditions: human respiratory syncytial virus
[8] = target: T1, Carboxy-terminal domain RNA polymerase II polypeptide A small phosphatase 1 (Homo sapiens, UniProt Q9GZU7); experiment: inhibitors of CTDSP1, concentration-response testing, biochemical assay, absorbance-based, actives from ultra-high-throughput screening (AID 540297); type: functional
T1 sequence (Q9GZU7 whole entry): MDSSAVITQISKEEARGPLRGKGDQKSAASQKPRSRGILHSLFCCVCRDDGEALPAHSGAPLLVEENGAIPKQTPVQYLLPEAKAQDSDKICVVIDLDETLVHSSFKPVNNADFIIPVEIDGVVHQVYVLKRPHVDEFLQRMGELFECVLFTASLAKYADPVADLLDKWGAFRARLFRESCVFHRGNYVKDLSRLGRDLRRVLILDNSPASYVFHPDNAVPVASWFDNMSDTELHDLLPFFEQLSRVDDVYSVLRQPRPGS

Estrogen receptor = target: T2, Estrogen receptor (Homo sapiens, UniProt P03372);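 note: potency for inhibiting coactivator peptide recruitment to the receptor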
T2 sequence (P03372 whole entry): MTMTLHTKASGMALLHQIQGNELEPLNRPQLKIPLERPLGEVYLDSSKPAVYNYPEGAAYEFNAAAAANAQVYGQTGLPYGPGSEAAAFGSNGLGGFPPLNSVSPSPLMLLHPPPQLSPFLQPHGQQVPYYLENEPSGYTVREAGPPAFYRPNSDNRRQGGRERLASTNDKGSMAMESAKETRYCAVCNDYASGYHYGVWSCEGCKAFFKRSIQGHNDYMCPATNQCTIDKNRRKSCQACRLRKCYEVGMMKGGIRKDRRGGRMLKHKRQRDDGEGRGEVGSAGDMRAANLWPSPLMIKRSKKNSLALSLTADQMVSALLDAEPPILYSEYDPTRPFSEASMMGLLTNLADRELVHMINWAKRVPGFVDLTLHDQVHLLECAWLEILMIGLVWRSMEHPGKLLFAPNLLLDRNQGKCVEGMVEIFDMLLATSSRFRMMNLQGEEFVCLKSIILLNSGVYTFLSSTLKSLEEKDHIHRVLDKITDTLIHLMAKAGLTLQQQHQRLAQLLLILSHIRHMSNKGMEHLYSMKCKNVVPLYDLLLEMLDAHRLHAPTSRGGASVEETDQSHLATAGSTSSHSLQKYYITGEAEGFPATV

Estrogen receptor beta = Estrogen receptor beta (Homo sapiens, UniProt Q92731);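 note: recombinant ER-beta bound to coactivator SRC1 peptide in presence of estradiol agonist; inhibitors block coactivator peptide binding and lower the FRET signal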
[9] = target: T3, Heat shock factor protein 1 (Mus musculus, UniProt P38532); experiment: inhibition of MG132-induced HSE-luciferase signal, confirmation, cell-based, NIH3T3, luminescence, dose retest (AID 2382); type: functional;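 note: NIH3T3 fibroblasts with HSF1-driven luciferase reporter stressed by proteasome inhibitor MG132; luminescence from HSF1-driven luciferase expression after 8 hours of MG132 stress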
T3 sequence (P38532 whole entry): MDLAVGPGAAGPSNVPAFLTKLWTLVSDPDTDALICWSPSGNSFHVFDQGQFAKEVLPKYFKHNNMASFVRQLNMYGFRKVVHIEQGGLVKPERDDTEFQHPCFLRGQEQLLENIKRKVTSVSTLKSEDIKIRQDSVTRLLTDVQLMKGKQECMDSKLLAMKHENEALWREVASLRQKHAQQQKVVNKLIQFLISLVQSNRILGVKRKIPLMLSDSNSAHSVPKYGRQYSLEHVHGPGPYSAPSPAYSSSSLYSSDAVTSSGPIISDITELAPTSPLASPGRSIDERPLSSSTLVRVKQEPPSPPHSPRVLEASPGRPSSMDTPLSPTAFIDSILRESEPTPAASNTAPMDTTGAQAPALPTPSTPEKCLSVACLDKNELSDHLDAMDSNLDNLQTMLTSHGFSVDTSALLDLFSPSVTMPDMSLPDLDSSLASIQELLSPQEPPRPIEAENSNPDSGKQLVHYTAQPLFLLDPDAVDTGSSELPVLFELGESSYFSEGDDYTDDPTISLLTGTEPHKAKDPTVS

Cytochrome P450 3A4 = Cytochrome P450 3A4 (Homo sapiens, UniProt P08684);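 note: CYP3A4 tested as one member of a cytochrome P450 panel screen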
Cytochrome P450 2C9 = Cytochrome P450 2C9 (Homo sapiens, UniProt P11712)
Cytochrome P450 1A2 = target: T4, Cytochrome P450 1A2 (Homo sapiens, UniProt P05177);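 note: PubChem cytochrome P450 panel assay, CYP1A2 panel member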
T4 sequence (P05177 whole entry): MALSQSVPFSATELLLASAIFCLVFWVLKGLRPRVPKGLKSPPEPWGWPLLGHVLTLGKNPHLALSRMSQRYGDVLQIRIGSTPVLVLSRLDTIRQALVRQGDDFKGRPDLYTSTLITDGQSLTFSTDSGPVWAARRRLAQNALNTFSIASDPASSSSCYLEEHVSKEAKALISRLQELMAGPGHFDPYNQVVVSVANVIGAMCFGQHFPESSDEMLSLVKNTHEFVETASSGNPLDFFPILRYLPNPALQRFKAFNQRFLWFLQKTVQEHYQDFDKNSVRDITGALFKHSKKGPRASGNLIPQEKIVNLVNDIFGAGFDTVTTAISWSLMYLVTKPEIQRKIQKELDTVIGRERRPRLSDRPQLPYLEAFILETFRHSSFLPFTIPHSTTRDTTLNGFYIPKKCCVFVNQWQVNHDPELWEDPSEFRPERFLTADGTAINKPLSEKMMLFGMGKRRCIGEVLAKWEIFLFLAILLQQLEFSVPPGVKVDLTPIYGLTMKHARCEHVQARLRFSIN

Sequence of Peroxisome proliferator-activated receptor gamma/Nuclear receptor coactivator 2 (P37231 whole entry): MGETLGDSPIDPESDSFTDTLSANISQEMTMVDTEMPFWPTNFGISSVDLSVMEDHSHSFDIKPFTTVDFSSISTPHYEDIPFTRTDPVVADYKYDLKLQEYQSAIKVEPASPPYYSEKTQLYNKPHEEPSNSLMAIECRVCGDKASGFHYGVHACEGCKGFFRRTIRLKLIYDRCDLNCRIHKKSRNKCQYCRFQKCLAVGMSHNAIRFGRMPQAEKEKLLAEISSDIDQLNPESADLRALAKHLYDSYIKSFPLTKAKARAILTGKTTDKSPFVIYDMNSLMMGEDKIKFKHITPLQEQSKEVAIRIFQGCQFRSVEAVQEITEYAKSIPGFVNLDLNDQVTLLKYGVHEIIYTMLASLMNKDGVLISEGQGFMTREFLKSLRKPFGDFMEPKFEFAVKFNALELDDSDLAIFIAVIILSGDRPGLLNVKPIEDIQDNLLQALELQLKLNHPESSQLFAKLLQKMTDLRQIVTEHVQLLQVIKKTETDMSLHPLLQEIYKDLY
Sequence of Peroxisome proliferator-activated receptor gamma/Nuclear receptor coactivator 2 (Q15596 whole entry, further chain): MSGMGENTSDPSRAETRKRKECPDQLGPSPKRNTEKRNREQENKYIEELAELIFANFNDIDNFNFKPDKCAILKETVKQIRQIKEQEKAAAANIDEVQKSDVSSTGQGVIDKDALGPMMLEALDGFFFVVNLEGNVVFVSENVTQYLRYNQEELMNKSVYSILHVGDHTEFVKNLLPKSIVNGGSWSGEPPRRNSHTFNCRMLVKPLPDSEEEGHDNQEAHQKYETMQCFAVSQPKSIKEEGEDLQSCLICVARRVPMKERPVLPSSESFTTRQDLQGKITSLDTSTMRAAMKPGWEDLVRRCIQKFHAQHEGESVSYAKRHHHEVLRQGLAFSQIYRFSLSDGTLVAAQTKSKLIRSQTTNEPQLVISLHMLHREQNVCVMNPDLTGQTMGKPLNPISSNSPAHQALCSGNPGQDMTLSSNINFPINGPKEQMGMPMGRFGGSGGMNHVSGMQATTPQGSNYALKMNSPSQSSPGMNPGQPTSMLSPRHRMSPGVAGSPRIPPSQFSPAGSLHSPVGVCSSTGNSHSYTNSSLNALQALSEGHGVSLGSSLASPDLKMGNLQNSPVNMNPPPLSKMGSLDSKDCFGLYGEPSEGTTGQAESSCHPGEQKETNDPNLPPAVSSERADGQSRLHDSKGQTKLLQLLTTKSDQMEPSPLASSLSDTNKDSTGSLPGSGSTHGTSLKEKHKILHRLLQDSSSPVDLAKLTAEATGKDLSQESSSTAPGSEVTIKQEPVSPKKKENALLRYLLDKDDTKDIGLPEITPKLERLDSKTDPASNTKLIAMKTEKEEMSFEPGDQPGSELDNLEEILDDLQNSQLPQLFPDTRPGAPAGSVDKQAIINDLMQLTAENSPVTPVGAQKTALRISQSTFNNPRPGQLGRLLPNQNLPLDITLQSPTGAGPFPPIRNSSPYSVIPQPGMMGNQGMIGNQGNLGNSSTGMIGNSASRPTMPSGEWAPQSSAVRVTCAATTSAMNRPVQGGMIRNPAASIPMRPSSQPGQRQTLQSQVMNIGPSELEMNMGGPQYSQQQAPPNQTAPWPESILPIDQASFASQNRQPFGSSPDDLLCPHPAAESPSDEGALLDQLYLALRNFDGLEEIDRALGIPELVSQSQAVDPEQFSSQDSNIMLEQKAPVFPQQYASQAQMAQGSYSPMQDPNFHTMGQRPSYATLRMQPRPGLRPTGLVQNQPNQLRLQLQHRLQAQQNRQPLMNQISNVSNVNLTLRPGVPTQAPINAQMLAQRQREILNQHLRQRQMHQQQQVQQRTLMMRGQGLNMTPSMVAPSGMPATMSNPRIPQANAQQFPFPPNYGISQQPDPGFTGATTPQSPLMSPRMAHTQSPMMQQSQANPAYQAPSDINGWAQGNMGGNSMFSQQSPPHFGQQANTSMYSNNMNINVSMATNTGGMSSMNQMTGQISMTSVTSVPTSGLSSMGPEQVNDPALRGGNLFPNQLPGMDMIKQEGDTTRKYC
Sequence of Peroxisome proliferator-activated receptor gamma/Nuclear receptor coactivator 3 (P37231 whole entry): as the sequence (P37231 whole entry) above
Sequence of Peroxisome proliferator-activated receptor gamma/Nuclear receptor coactivator 3 (Q9Y6Q9 whole entry, further chain): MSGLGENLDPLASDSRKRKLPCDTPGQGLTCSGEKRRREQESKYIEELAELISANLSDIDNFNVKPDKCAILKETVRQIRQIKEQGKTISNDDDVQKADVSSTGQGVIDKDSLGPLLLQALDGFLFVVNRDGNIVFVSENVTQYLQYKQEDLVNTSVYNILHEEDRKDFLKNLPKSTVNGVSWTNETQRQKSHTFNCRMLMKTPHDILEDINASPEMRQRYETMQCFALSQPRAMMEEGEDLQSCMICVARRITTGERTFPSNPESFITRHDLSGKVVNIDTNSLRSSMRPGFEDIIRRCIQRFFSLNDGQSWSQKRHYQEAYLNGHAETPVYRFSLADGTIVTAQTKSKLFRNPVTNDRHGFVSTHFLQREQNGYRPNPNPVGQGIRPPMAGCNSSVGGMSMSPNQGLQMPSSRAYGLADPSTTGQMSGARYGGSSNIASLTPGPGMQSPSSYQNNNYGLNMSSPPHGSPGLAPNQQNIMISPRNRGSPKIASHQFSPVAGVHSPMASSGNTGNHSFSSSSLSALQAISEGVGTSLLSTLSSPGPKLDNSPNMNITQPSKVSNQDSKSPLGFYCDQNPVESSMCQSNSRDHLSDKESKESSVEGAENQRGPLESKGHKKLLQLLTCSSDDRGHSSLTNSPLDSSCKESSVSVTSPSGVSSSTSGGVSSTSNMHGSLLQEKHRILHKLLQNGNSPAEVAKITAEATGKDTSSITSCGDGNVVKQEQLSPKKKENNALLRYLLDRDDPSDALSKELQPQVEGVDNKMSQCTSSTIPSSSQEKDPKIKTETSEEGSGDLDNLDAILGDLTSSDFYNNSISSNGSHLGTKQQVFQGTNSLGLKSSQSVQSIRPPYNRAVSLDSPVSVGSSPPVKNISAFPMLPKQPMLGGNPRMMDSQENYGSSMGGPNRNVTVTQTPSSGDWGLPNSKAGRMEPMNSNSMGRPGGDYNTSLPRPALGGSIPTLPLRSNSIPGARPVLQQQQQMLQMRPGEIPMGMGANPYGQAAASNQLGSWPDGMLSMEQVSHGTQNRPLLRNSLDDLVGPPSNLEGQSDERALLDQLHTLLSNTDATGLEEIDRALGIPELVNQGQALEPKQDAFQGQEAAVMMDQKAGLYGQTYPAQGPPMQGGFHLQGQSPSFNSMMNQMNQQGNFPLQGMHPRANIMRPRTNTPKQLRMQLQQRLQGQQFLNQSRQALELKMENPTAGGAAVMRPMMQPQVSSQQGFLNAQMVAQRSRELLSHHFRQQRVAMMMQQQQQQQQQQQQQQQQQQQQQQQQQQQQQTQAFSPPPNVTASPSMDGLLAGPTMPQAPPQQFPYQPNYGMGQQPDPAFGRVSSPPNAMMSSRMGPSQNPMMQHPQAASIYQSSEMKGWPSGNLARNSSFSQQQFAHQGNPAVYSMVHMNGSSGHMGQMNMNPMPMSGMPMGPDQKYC
Sequence of Glucose-6-phosphate 1-dehydrogenase (P11413 whole entry): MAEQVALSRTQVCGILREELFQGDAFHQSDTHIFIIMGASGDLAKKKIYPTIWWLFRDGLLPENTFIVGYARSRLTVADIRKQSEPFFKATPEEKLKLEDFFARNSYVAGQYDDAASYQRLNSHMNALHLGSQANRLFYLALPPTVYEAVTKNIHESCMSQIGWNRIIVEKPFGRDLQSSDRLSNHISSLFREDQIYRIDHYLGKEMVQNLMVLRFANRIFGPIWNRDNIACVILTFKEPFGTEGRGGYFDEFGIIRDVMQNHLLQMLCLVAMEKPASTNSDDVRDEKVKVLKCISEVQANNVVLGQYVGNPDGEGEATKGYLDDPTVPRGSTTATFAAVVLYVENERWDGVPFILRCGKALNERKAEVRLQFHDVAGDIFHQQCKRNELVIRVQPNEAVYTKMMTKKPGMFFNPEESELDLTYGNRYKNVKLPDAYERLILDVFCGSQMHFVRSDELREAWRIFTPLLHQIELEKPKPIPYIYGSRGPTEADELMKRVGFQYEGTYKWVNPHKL
Sequence of Cytochrome P450 3A4 (P08684 whole entry): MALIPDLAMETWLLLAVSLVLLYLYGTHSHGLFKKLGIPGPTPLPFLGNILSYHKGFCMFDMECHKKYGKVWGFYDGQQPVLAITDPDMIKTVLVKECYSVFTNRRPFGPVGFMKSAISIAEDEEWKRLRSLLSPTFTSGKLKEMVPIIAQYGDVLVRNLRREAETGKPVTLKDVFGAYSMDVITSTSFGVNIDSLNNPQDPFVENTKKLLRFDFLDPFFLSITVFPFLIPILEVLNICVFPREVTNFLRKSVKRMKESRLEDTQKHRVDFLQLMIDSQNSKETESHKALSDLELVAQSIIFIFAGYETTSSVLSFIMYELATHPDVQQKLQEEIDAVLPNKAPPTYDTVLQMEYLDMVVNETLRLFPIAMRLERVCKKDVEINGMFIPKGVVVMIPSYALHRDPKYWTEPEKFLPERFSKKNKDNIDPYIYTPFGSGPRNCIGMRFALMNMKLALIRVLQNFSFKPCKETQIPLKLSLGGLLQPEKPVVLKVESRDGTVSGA

For `CC(=O)c1ccc2oc3ccccc3c(=O)c2c1`, the AC50 (HeLa) was 41 µM (active).

For `COc1c(C)cccc1C(=O)NC(=S)Nc1cccc2nsnc12`, the EC50 [1] was 4.14 µM (active), the EC50 [2] was 39.5 µM (not active) and the EC50 [3] was 3.68 µM (active).

For `Cc1ccc(NCCC(=O)c2cccs2)cc1C`, the AC50 (HeLa) was > 350 µM (inactive) and the IC50 (cells [4]) was 20.7 µM (active).

In the case of `CCOc1ccc(NC(=O)CSc2ncnc3c2sc2ccccc23)cc1`, the EC50 [1] is reported as 32 µM (not active), the EC50 [2] is reported as 81.4 µM (not active) and the EC50 [3] is reported as > 79.4 µM (inactive).

For `CN1CCN(C(=S)c2ccc([N+](=O)[O-])cc2)CC1`, the IC50 [5] was > 80 µM (inactive).

With `CN(C(=O)c1cc(-c2ccccc2)on1)C1CCCCC1` the AC50 (HeLa) was > 350 µM (inactive).

In the case of `CSc1cnn(Cc2ccccc2)c(=O)c1SCc1ccccc1`, the EC50 [1] is reported as 7.94 µM (active), the EC50 [2] is reported as > 79.4 µM (not active) and the EC50 [3] is reported as 3.27 µM (active).

For `COc1ccccc1Nc1nc(-c2cccc([N+](=O)[O-])c2)cs1`, the IC50 (cells [6]) was 12.3 µM (active) and the CC50 [7] was 25.1 µM (active).

In the case of `COc1ccccc1OCCn1c(SCC(=O)O)nc2ccccc21`, the IC50 [8] is reported as 6.47 µM (active).

With `Cn1nc(-c2ccc(C(=O)Nc3ccc(F)cc3)cc2)c2ccccc2c1=O` the IC50 [8] was 10.4 µM (active).

With `CCn1c(=O)cc(SCC(=O)NCCN2CCN(Cc3ccccc3)CC2)c2ccccc21` the EC50 [1] was > 79.4 µM (not active), the EC50 [2] was > 79.4 µM (not active) and the EC50 [3] was > 79.4 µM (inactive).

In the case of `Cc1[nH]c(C)c(S(=O)(=O)N2CCN(c3cccc(Cl)c3)CC2)c1C(=O)N1CCCCC1`, the IC50 (cells [6]) is reported as 31.5 µM (active) and the CC50 [7] is reported as 29.3 µM (active).

With `Cc1[nH]c2ccc(-c3nnc(SCC(=O)c4ccccc4F)o3)cc2c1C` the IC50 (Estrogen receptor) was 26 µM (active), the IC50 (cells [6]) was 40.7 µM (active) and the CC50 [7] was 32.8 µM (active).

For `CN1CC2(C)CN(C(c3ccccc3)c3ccccc3)CC(C)(C1)C2O` (centres undefined), the IC50 (Estrogen receptor beta) was > 50 µM (not active).

For `O=C1c2ccccc2/C(=C\C#Cc2ccccn2)N1c1ccccc1`, the AC50 (HeLa) was 42.6 µM (active).

In the case of `COc1cccc(-c2c(C(=O)N/N=C/c3ccc(C)s3)nnn2-c2nonc2N)c1`, the IC50 [5] is reported as > 80 µM (inactive) and the EC50 [9] is reported as > 195 µM (not active).

In the case of `CC(=N)/C(C#N)=C(/O)COc1ncnc2ccc(Br)cc12`, the AC50 (Cytochrome P450 3A4) is reported as 17.8 µM (inconclusive), the IC50 (cells [6]) is reported as 1.14 µM (active) and the AC50 (Cytochrome P450 2C9) is reported as 11.2 µM (inconclusive). For the same compound, the AC50 (Cytochrome P450 1A2) was 0.0316 µM (inconclusive).

— ChEMBL document CHEMBL1201862, “PubChem BioAssay data set” (2004)
